Measured values: patent publication US6921667B2, “Methods for direct detection of individual methotrexate metabolites” (Prometheus Laboratories, Inc., priority 2003, dated 2005)

Assay: Red blood cell methotrexate polyglutamate concentrations in patients on low-dose methotrexate, by HPLC fluorometry with post-column photo-oxidation
Format: in vivo, human
Conditions: single patient on 17.5 mg weekly methotrexate for at least 3 months; FIG. 4A; packed red blood cells
Protocol: The liquid chromatograph was an Agilent 1100 HPLC chemstation system composed of a quaternary pump, a system controller, an autoinjector, a sample cooler kept at 4° C., and a fluorometer. […] Methotrexate polyglutamates were detected with post-column derivatization using a photochemical reactor unit (Aura Industries; New York, N.Y.) equipped with an elongated 254 nm low pressure mercury ultraviolet lamp and containing a 1/16″ outer diameter TEFLON™ tubing (internal diameter 0.25 mm) assembled as a knitted coil and connected on-line between the analytical column and fluorometer. The knitted coil was extended lengthwise through the photochemical reactor unit; all but a portion of the elongated lamp was masked with foil such that only a segment of the knitted coil was irradiated. In particular, the lamp was masked such that only 1 meter of the coil was irradiated with the lamp, which at a flow rate of 1 ml/min corresponded to 3 seconds irradiation. Methotrexate polyglutamate photolytic products were measured at an excitation wavelength of 274 nm and an emission wavelength of 464 nm, unless otherwise indicated. The retention times described herein were measured from time of injection to time of detection at the post-reactor unit fluorometer. […]
Methotrexate polyglutamate photolytic products were analyzed at an excitation wavelength of 274 nm and an emission wavelength of 464 nm. […]

## CN(Cc1cnc2nc(N)nc(N)c2n1)c1ccc(C(=O)N[C@@H](CCC(=O)O)C(=O)O)cc1 [MTXPG1, 4-amino-10-methylpteroylglutamic acid]
  concentration in red blood cell sample: 27 nM
